Read-outs that look alike come from different tables or passages of the source.
Columns and labels:
[1] = target: T1, HCV NS5B polymerase (NS5BΔCT21, from HCV-Con 1 isolate, genotype 1b) (Hepatitis C virus genotype 1b, UniProt Q9WMX2); experiment: HCV NS5B Polymerase Inhibition Assay; type: biochemical
T1 construct: A soluble C-terminal 21-amino acid truncated NS5B enzyme form; polyhistidine (C); made in house; host or cells: Escherichia coli
Source text: A chemically synthesized 75-mer version, designated DCoH75, whose sequence matches the 3′-end of D-RNA, and DCoH75ddC, where the 3′-terminal cytidine of DCoH75 is replaced by dideoxycytidine, were used for assaying the NS5B enzyme activity as described in Ferrari et al., 12th International Symposium on HCV and Related Viruses, P-306 (2005). The sequence of the template RNA was: 5′-UGUGCCGGUCUUUCUGAACGGGAUAUAAACCUGGCCAGCUUCAUCGAACAAGUUGCCGUGUCUAUGACAUAGAUC-3′. A soluble C-terminal 21-amino acid truncated NS5B enzyme form (NS5BΔCT21, from HCV-Con 1 isolate, genotype 1b, Genbank accession number AJ238799) was produced and purified from Escherichia coli as C-terminal polyhistidine-tagged fusion protein as described in Ferrari et al., J. Virol. 73:1649-1654 (1999). A typical assay contained 20 mM Hepes pH 7.3, 10 mM MgCl2, 60 mM NaCl, 100 μg/ml BSA, 20 units/ml RNasin, 7.5 mM DTT, 0.1 μM ATP/GTP/UTP, 0.026 μM CTP, 0.25 mM GAU, 0.03 μM RNA template, 20 μCi/ml [^33P]-CTP, 2% DMSO, and 30 or 150 nM NS5B enzyme. Reactions were incubated at 22° C. for 2 hours, then stopped by adding 150 mM EDTA, washed in DE81 filter plate in 0.5M di-basic sodium phosphate buffer, pH 7.0, and counted using Packard TopCount after the addition of scintillation cocktail. Polynucleotide synthesis was monitored by the incorporation of radiolabeled CTP. The effect of the Compounds of Formula (I) on the polymerase activity was evaluated by adding various concentrations of a Compound of Formula (I), typically in 10 serial 2-fold dilutions, to the assay mixture. The starting concentrations ranged from 200 μM to 1 μM. An IC50 value for the inhibitor, defined as the compound concentration that provides 50% inhibition of polymerase activity, was determined by fitting the cpm data to the Hill equation Y=100/(1+10^((LogIC50-X)*HillSlope)), where X is the logarithm of compound concentration, and Y is the % inhibition. Ferrari et al., 12th International Symposium on HCV and Related Viruses, P-306 (2005) described in detail this assay procedure. It should be noted that such an assay as described is exemplary and not intended to limit the scope of the invention. The skilled practitioner can appreciate that modifications including but not limited to RNA template, primer, nucleotides, NS5B polymerase form, buffer composition, can be made to develop similar assays that yield the same result for the efficacy of the compounds and compositions described in the invention.
NS5B polymerase inhibition data for selected Compounds of Formula (I) is provided below in Table 2, wherein the compound numbers correspond to the compound numbering set forth in the above specification.

[2] = system: HCV replicon cells (replicon RNA level); experiment: Cell-Based HCV Replicon Assay; details: Hepatitis C virus, 72 h
Procedure: To measure cell-based anti-HCV activity of the a Compound of Formula (I), replicon cells were seeded at 5000 cells/well in 96-well collagen I-coated Nunc plates in the presence of the Compound of Formula (I). Various concentrations of a Compound of Formula (I), typically in 10 serial 2-fold dilutions, were added to the assay mixture, with the starting concentration ranging from 250 μM to 1 μM. The final concentration of DMSO was 0.5%, fetal bovine serum was 5%, in the assay media. Cells were harvested on day 3 by the addition of 1× cell lysis buffer (Ambion cat #8721). The replicon RNA level was measured using real time PCR (Taqman assay). The amplicon was located in 5B. The PCR primers were: 5B.2F, ATGGACAGGCGCCCTGA; 5B.2R, […]; the probe sequence was FAM-labeled CACGCCATGCGCTGCGG. GAPDH RNA was used as endogenous control and was amplified in the same reaction as NS5B (multiplex PCR) using primers and VIC-labeled probe recommended by the manufacturer (PE Applied Biosystem). The real-time RT-PCR reactions were run on ABI PRISM 7900HT Sequence Detection System using the following program: 48° C. for 30 min, 95° C. for 10 min, 40 cycles of 95° C. for 15 sec, 60° C. for 1 min. The ΔCT values (CT5B-CTGAPDH) were plotted against the concentration of test compound and fitted to the sigmoid dose-response model using XLfit4 (MDL). EC50 was defined as the concentration of inhibitor necessary to achieve ΔCT=1 over the projected baseline; EC90 the concentration necessary to achieve ΔCT=3.2 over the baseline. Alternatively, to quantitate the absolute amount of replicon RNA, a standard curve was established by including serially diluted T7 transcripts of replicon RNA in the Taqman assay. All Taqman reagents were from PE Applied Biosystems. Such an assay procedure was described in detail in e.g. Malcolm et al., Antimicrobial Agents and Chemotherapy 50: 1013-1020 (2006).
HCV Replicon assay data for selected Compounds of Formula (I) is provided below in Table 1, wherein the compound numbers correspond to the compound numbering set forth in the above specification.

[3] = NS5B polymerase inhibition, [33P]-CTP incorporation, 22° C. for 2 hours, read-out: IC50
[4] = replicon RNA level by real time PCR (Taqman), cells harvested on day 3, read-out: EC50

Row | Structure (SMILES) | IC50 [1, 3] [nM] | EC50 [2, 4] [nM] | IC50 [1] [nM] | EC50 [2] [nM]
1 | CCc1coc2c1ccc1c2c(-c2ccc[nH]c2=O)c(C(=O)NS(C)(=O)=O)n1Cc1cc(F)ccc1F [Compound 69] | > 100 | < 500 | – | –
2 | CCc1coc2c1ccc1c2c(-c2ccc[nH]c2=O)c(C(=O)NS(C)(=O)=O)n1Cc1ccccc1F [Compound 70] | > 100 | > 1500 | – | –
3 | Cc1cc2ccc3c(c(-c4ccc[nH]c4=O)c(C(=O)O)n3Cc3ccccc3F)c2o1 [Compound 76] | 25 to 100 | > 1500 | – | –
4 | Nc1cc(Cn2c(C(=O)O)c(-c3ccc[nH]c3=O)c3c4occc4c(F)cc32)ccn1 [Compound 77] | < 25 | < 500 | – | –
5 | O=C(O)c1c(-c2ccc[nH]c2=O)c2c3occc3c(F)cc2n1Cc1cc[nH]c(=O)c1 [Compound 78] | 25 to 100 | < 500 | – | –
6 | O=C(O)c1c(-c2ccc[nH]c2=O)c2c3occc3c(F)cc2n1Cc1ccccc1F [Compound 79] | < 25 | < 500 | – | –
7 | Nc1n[nH]c2cc(F)c(Cn3c(C(=O)O)c(-c4ccc[nH]c4=O)c4c5occc5c(F)cc43)cc12 [Compound 80] | – | < 500 | < 25 | –
8 | NCc1cccc(Cn2c(C(=O)O)c(-c3ccc[nH]c3=O)c3c4occc4c(F)cc32)c1 [Compound 81] | < 25 | < 500 | – | –
9 | NCc1ccc(Cn2c(C(=O)O)c(-c3ccc[nH]c3=O)c3c4occc4c(F)cc32)cc1 [Compound 82] | < 25 | < 500 | – | –
10 | Cc1c[nH]c(=O)cc1Cn1c(C(=O)O)c(-c2ccc[nH]c2=O)c2c3occc3c(F)cc21 [Compound 83] | < 25 | < 500 | – | –
11 | Cc1cc2ccc3c(c(-c4ccc[nH]c4=O)c(C(=O)O)n3Cc3cc(F)ccc3F)c2o1 [Compound 85] | < 25 | > 1500 | – | –
12 | O=C(O)c1c(-c2ccc[nH]c2=O)c2c3occc3c(F)cc2n1Cc1cc(=O)[nH]cc1F [Compound 87] | < 25 | – | – | < 500
13 | O=C(O)c1c(-c2cccc(O)c2F)c2c3occc3c(F)cc2n1Cc1ccccc1F [Compound 88] | 25 to 100 | 500 to 1500 | – | –
14 | O=C(O)c1c(-c2ccc[nH]c2=O)c2c3occc3c(F)cc2n1Cc1cc(F)ccc1F [Compound 89] | < 25 | < 500 | – | –
15 | O=C(O)c1c(-c2ccc[nH]c2=O)c2c3occc3c(F)cc2n1Cc1ccc2nc[nH]c2c1 [Compound 91] | < 25 | < 500 | – | –
16 | NC(=O)c1cccc(Cn2c(C(=O)O)c(-c3ccc[nH]c3=O)c3c4occc4c(F)cc32)c1 [Compound 92] | < 25 | < 500 | – | –
17 | NC(=O)c1ccc(Cn2c(C(=O)O)c(-c3ccc[nH]c3=O)c3c4occc4c(F)cc32)cc1 [Compound 93] | < 25 | < 500 | – | –
18 | NC(=O)c1ccc(F)c(Cn2c(C(=O)O)c(-c3ccc[nH]c3=O)c3c4occc4ccc32)c1 [Compound 94] | < 25 | < 500 | – | –
19 | NCc1ccc(Cn2c(C(=O)O)c(-c3ccc[nH]c3=O)c3c4occc4c(F)cc32)c(F)c1 [Compound 95] | < 25 | < 500 | – | –
